Test results reported in ChEMBL document CHEMBL4814067, “An optimized analog of antimicrobial peptide Jelleine-1 shows enhanced antimicrobial activity against multidrug resistant P. aeruginosa and negligible toxicity in vitro and in vivo” (Eur J Med Chem, 2021).
Each block holds one substance with its values, some of them ahead of it. Calls of active or inactive are those of the source. The calls are words filed in the database; no cut-off is given here.

Key:
Escherichia coli [1] = experiment: Antibacterial activity against Escherichia coli ATCC 25922 assessed as transparent well by visual inspection after 18 hrs by CLSI based-broth microdilution method; type: functional
Pseudomonas aeruginosa [2] = experiment: Antibacterial activity against Pseudomonas aeruginosa ATCC 27853 assessed as transparent well by visual inspection after 18 hrs by CLSI based-broth microdilution method; type: functional
Enterobacter sp. = experiment: Antibacterial activity against Enterobacter sakazakii ATCC 29544 assessed as transparent well by visual inspection after 18 hrs by CLSI based-broth microdilution method; type: functional
Staphylococcus aureus [3] = experiment: Antibacterial activity against Staphylococcus aureus ATCC 29213 assessed as transparent well by visual inspection after 18 hrs by CLSI based-broth microdilution method; type: functional; conditions: C1 ATCC 29213
Bacillus subtilis = experiment: Antibacterial activity against Bacillus subtilis ATCC 23857 assessed as transparent well by visual inspection after 18 hrs by CLSI based-broth microdilution method; type: functional
[4] = system: Staphylococcus epidermidis; experiment: Antibacterial activity against Staphylococcus epidermidis ATCC 12228 assessed as transparent well by visual inspection after 18 hrs by CLSI based-broth microdilution method; type: functional
Staphylococcus aureus [5] = experiment: Antibacterial activity against methicillin resistant Staphylococcus aureus clinical isolate 1 assessed as transparent well by visual inspection after 18 hrs by CLSI based-broth microdilution method; type: functional; conditions: C1
Staphylococcus aureus [6] = experiment: Antibacterial activity against methicillin resistant Staphylococcus aureus clinical isolate 2 assessed as transparent well by visual inspection after 18 hrs by CLSI based-broth microdilution method; type: functional
Staphylococcus aureus [7] = experiment: Antibacterial activity against methicillin resistant Staphylococcus aureus clinical isolate 3 assessed as transparent well by visual inspection after 18 hrs by CLSI based-broth microdilution method; type: functional
Staphylococcus aureus [8] = experiment: Antibacterial activity against methicillin resistant Staphylococcus aureus clinical isolate 4 assessed as transparent well by visual inspection after 18 hrs by CLSI based-broth microdilution method; type: functional
Escherichia coli [9] = experiment: Antibacterial activity against ESBL-producing Escherichia coli clinical isolate 1 assessed as transparent well by visual inspection after 18 hrs by CLSI based-broth microdilution method; type: functional
Escherichia coli [10] = experiment: Antibacterial activity against ESBL-producing Escherichia coli clinical isolate 2 assessed as transparent well by visual inspection after 18 hrs by CLSI based-broth microdilution method; type: functional
Escherichia coli [11] = experiment: Antibacterial activity against ESBL-producing Escherichia coli clinical isolate 3 assessed as transparent well by visual inspection after 18 hrs by CLSI based-broth microdilution method; type: functional
Escherichia coli [12] = experiment: Antibacterial activity against ESBL-producing Escherichia coli clinical isolate 4 assessed as transparent well by visual inspection after 18 hrs by CLSI based-broth microdilution method; type: functional
Escherichia coli [13] = experiment: Antibacterial activity against ESBL-producing Escherichia coli clinical isolate 5 assessed as transparent well by visual inspection after 18 hrs by CLSI based-broth microdilution method; type: functional
Pseudomonas aeruginosa [14] = experiment: Antibacterial activity against Pseudomonas aeruginosa clinical isolate assessed as transparent well by visual inspection after 18 hrs by CLSI based-broth microdilution method; type: functional
Erythrocyte [15] = experiment: Haemolytic activity in human erythrocytes at 256 uM by optical absorption assay; type: ADME, cell-based
Pseudomonas aeruginosa [16] = experiment: Inhibition of biofilm formation in multidrug-resistant Pseudomonas aeruginosa at 256 uM measured after 24 hrs by crystal violet staining based assay; type: functional, organism-based
Cell membrane [17] = experiment: Induction of outer membrane permeabilization in Escherichia coli using NPN hydrophobic fluorescent probe at 1 to 8 times of MIC measured for 15 mins by multimode reader
Cell membrane [18] = experiment: Induction of inner membrane permeabilization in Escherichia coli ML-35 assessed as increase in ONPG at 1 to 8 times of MIC measured 100 mins by multimode reader
Erythrocyte [19] = experiment: Haemolytic activity in human erythrocytes by optical absorption assay; type: ADME, cell-based
NIH3T3 = experiment: Cytotoxicity against mouse NIH/3T3 assessed as reduction in cell viability measured after 24 hrs by MTT assay; type: cell-based; conditions: nih3t3, 24 h
RAW264.7 = experiment: Cytotoxicity against mouse RAW264.7 assessed as reduction in cell viability measured after 24 hrs by MTT assay; type: cell-based; conditions: raw264.7, 24 h
HeLa = experiment: Cytotoxicity against human HeLa cells assessed as reduction in cell viability measured after 24 hrs by MTT assay; type: cell-based
Staphylococcus aureus [20] = experiment: Bactericidal activity against Staphylococcus aureus assessed as killing effect at 2 times MIC measured at 60 mins by bacterial colony counting assay; type: functional; conditions: 1 h
Escherichia coli [21] = experiment: Bactericidal activity against Escherichia coli assessed as killing effect at 2 times MIC measured at 60 mins by bacterial colony counting assay; type: functional; conditions: 1 h
Staphylococcus aureus [22] = experiment: Bactericidal activity against Staphylococcus aureus assessed as killing effect at 1 times MIC measured at 240 mins by bacterial colony counting assay; type: functional, organism-based
Escherichia coli [23] = experiment: Bactericidal activity against Escherichia coli assessed as killing effect at 1 times MIC measured at 120 mins by bacterial colony counting assay; type: functional, organism-based
Pseudomonas aeruginosa [24] = experiment: Inhibition of biofilm formation in multidrug-resistant Pseudomonas aeruginosa at 64 uM measured after 24 hrs by crystal violet staining based assay; type: functional
Pseudomonas aeruginosa [25] = experiment: Antimicrobial activity against multidrug-resistant Pseudomonas aeruginosa infected in peritonitis sepsis mouse model assessed as increase in mouse survival rate at 10 mg/kg, ip measured after 3 days; type: functional, organism-based; conditions: time 3.0 day
Pseudomonas aeruginosa [26] = experiment: Antimicrobial activity against multidrug-resistant Pseudomonas aeruginosa infected in peritonitis sepsis mouse model assessed as increase in mouse survival rate at 30 mg/kg, ip measured after 7 days; type: functional, organism-based; conditions: time 7.0 day
[27] = Toxicity in mouse assessed as effect on alanine aminotransferase level at 10 to 30 mg/kg, ip measured after 8 days; type: organism-based; conditions: in vivo, 192 h, dose 10-30 mg/kg, time 8 day
[28] = Toxicity in mouse assessed as effect on aspartate transaminase level at 10 to 30 mg/kg, ip measured after 8 days; type: organism-based; conditions: in vivo, 192 h, dose 10-30 mg/kg, time 8 day
[29] = Toxicity in mouse assessed as effect on total protein level at 10 to 30 mg/kg, ip measured after 8 days; type: organism-based; conditions: in vivo, 192 h, dose 10-30 mg/kg, time 8 day
[30] = Toxicity in mouse assessed as effect on total albumin level at 10 to 30 mg/kg, ip measured after 8 days; type: organism-based; conditions: in vivo, 192 h, dose 10-30 mg/kg, time 8 day
[31] = Toxicity in mouse assessed as effect on body weight at 10 to 30 mg/kg, ip measured after 8 days; type: organism-based; conditions: in vivo, 192 h, dose 10-30 mg/kg, time 8 day

Substance: H-PFKLSLHL-OH
MIC (Escherichia coli [1]): 32 µM
MIC (Pseudomonas aeruginosa [2]): 32 µM
MIC (Enterobacter sp.): 64 µM
MIC (Staphylococcus aureus [3]): 128 µM
MIC (Bacillus subtilis): 32 µM
MIC [4]: 64 µM
MIC (Staphylococcus aureus [5]): 128 µM
MIC (Staphylococcus aureus [6]): 128 µM
MIC (Staphylococcus aureus [7]): 128 µM
MIC (Staphylococcus aureus [8]): 128 µM
MIC (Escherichia coli [9]): 32 µM
MIC (Escherichia coli [10]): 32 µM
MIC (Escherichia coli [11]): 32 µM
MIC (Escherichia coli [12]): 32 µM
MIC (Escherichia coli [13]): 32 µM
MIC (Pseudomonas aeruginosa [14]): 32 µM
Activity (Erythrocyte [15]): Toxic
inhibition (Pseudomonas aeruginosa [16]): Active
Activity (Cell membrane [17]): Dose-Dependent Effect
Activity (Cell membrane [18]): Active

Substance: H-PWRLRLRL-OH
MIC (Escherichia coli [1]): 4 µM
MIC (Pseudomonas aeruginosa [2]): 8 µM
MIC (Enterobacter sp.): 8 µM
MIC (Staphylococcus aureus [3]): 32 µM
MIC (Bacillus subtilis): 4 µM
MIC [4]: 8 µM
MIC (Staphylococcus aureus [5]): 32 µM
MIC (Staphylococcus aureus [6]): 32 µM
MIC (Staphylococcus aureus [7]): 32 µM
MIC (Staphylococcus aureus [8]): 32 µM
MIC (Escherichia coli [9]): 4 µM
MIC (Escherichia coli [10]): 4 µM
MIC (Escherichia coli [11]): 4 µM
MIC (Escherichia coli [12]): 4 µM
MIC (Escherichia coli [13]): 4 µM
MIC (Pseudomonas aeruginosa [14]): 8 µM
Activity (Erythrocyte [19]): Non-Toxic
Activity (NIH3T3): Non-Toxic
Activity (RAW264.7): Non-Toxic
Activity (HeLa): Non-Toxic
Activity (Staphylococcus aureus [20]): 100%
Activity (Escherichia coli [21]): 100%
Activity (Staphylococcus aureus [22]): Active
Activity (Escherichia coli [23]): Active
inhibition at 64 µM (Pseudomonas aeruginosa [24]): 74.6%
Activity (Cell membrane [17]): Dose-Dependent Effect
Activity (Cell membrane [18]): Active
Activity (Pseudomonas aeruginosa [25]): inactive
Activity (Pseudomonas aeruginosa [26]): Active
Activity [27]: Non-Toxic
Activity [28]: Non-Toxic
Activity [29]: Non-Toxic
Activity [30]: Non-Toxic
Activity [31]: Non-Toxic

MIC (Escherichia coli [1]): 8 µM
MIC (Pseudomonas aeruginosa [2]): 8 µM
MIC (Enterobacter sp.): 8 µM
MIC (Staphylococcus aureus [3]): 32 µM
MIC (Bacillus subtilis): 8 µM
MIC [4]: 16 µM
Substance: H-PWRLSLRL-OH

MIC (Escherichia coli [1]): 16 µM
MIC (Pseudomonas aeruginosa [2]): 32 µM
MIC (Enterobacter sp.): 32 µM
MIC (Staphylococcus aureus [3]): 128 µM
MIC (Bacillus subtilis): 16 µM
MIC [4]: 34 µM
Substance: H-PFRLRLHL-OH

MIC (Escherichia coli [1]): 16 µM
MIC (Pseudomonas aeruginosa [2]): 32 µM
MIC (Enterobacter sp.): 16 µM
MIC (Staphylococcus aureus [3]): 32 µM
MIC (Bacillus subtilis): 16 µM
MIC [4]: 8 µM
Substance: H-PWRLSLHL-OH

MIC (Escherichia coli [1]): 16 µM
MIC (Pseudomonas aeruginosa [2]): 64 µM
MIC (Enterobacter sp.): 16 µM
MIC (Staphylococcus aureus [3]): 32 µM
MIC (Bacillus subtilis): 16 µM
MIC [4]: 16 µM
Substance: H-PWKLKLKL-OH

MIC (Escherichia coli [1]): 16 µM
MIC (Pseudomonas aeruginosa [2]): 32 µM
MIC (Enterobacter sp.): 8 µM
MIC (Staphylococcus aureus [3]): 32 µM
MIC (Bacillus subtilis): 16 µM
MIC [4]: 16 µM
Substance: H-PWKLSLKL-OH

MIC (Escherichia coli [1]): 16 µM
MIC (Pseudomonas aeruginosa [2]): 32 µM
MIC (Enterobacter sp.): 16 µM
MIC (Staphylococcus aureus [3]): 64 µM
MIC (Bacillus subtilis): 16 µM
MIC [4]: 32 µM
Substance: H-PWKLKLHL-OH

MIC (Escherichia coli [1]): 16 µM
MIC (Pseudomonas aeruginosa [2]): 16 µM
MIC (Enterobacter sp.): 16 µM
MIC (Staphylococcus aureus [3]): 64 µM
MIC (Bacillus subtilis): 16 µM
MIC [4]: 32 µM
Substance: H-PWKLSLHL-OH
